Tests used:
[1] = target: T1, recombinantly expressed His-tagged protein corresponding to amino acids 575-869 of human Tyk2 (Homo sapiens, UniProt P29597); experiment: Probe displacement assay (scintillation proximity, radiolabeled probe); format: binding
T1 construct: made in house
Method: The probe displacement assay is conducted as follows: In a […], test compounds along with recombinantly expressed His-tagged protein corresponding to amino acids 575-869 of human Tyk2 (sequence shown below) at 2.5 nM, 40 nM ((R)—N-(1-(3-(8-methyl-5-(methylamino)-8H-imidazo[4,5-d]thiazolo[5,4-b]pyridin-2-yl)phenyl)ethyl)-2-([^3H]methylsulfonyl)benzamide) (preparation described below) and 80 μg/mL Copper His-Tag scintillation proximity assay beads (Perkin Elmer, Catalog #RPNQ0095) in 50 mM HEPES, pH 7.5, containing 100 μg/mL bovine serum albumin and 5% DMSO were incubated for 30 minutes at room temperature. […] The IC50 value is defined as the concentration of test compound required to inhibit radiolabeled probe binding by 50%.
Protein Sequence of recombinant Hig-tagged Tyk2 (575-869):
The preparation of radiolabeled probe, (R)—N-(1-(3-(8-methyl-5-(methylamino)-8H-imidazo[4,5-d]thiazolo[5,4-b]pyridin-2-yl)phenyl)ethyl)-2-([^3H]methylsulfonyl)benzamide, was performed as described below: […]

[2] = tested on: IL-23-stimulated Kit225 T cells with STAT-dependent luciferase reporter; experiment: Kit225 T cell assay, IL-23 stimulated STAT-dependent luciferase reporter; format: cell-based, human; details: Homo sapiens, KIT225, read-out: IL-23 Kit225 Reporter, LE (IC50, uM)
Method: (§1) Kit225 T cells with a stably-integrated STAT-dependent luciferase reporter were plated in RPMI (GIBCO) containing 10% heat-inactivated FBS (GIBCO) and 100 U/mL PenStrep (GIBCO). The cells were then stimulated with either 20 ng/mL human recombinant IL-23 or 200 U/mL human recombinant IFNα (PBL InterferonSource) for 5-6 hours. Luciferase expression was measured using the STEADY-GLO® Luciferase Assay System (PROMEGA®) according to the manufacturer's instructions.

[3] = tested on: IFNα-stimulated Kit225 T cells with STAT-dependent luciferase reporter; experiment: Kit225 T cell assay, IFNα stimulated STAT-dependent luciferase reporter; format: cell-based, human; details: Homo sapiens, KIT225, read-out: IFNa Kit225 Reporter, LE (IC50, uM)
Method: as §1

T1 sequence (P29597 with tags, fused parts or gaps): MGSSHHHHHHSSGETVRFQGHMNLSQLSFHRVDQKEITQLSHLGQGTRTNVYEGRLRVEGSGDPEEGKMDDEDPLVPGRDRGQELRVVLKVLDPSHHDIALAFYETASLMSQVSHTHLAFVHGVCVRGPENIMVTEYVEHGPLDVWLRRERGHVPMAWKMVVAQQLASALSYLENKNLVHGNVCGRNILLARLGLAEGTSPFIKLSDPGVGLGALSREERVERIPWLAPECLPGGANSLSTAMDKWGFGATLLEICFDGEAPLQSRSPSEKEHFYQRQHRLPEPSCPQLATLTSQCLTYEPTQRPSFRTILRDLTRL

Row | SMILES | EC50 [1] [µM] | IC50 [2] [µM] | IC50 [3] [µM]
1 | CNC(=O)c1cc(Nc2cc(NC)c3ncc(C(=O)NC4CC4)n3n2)n(C)n1 [Example 39, N-cyclopropyl-6-((1-methyl-3-(methylcarbamoyl)-1H-pyrazol-5-yl)amino)-8-(methylamino)imidazo[1,2-b]pyridazine-3-carboxamide] | 1.27 | 12.5 | 12.5
2 | CNc1cc(Nc2cc(C(=O)Nc3ccccc3)nn2C)nn2c(C(=O)NC3CC3)cnc12 [Example 40] | 0.08 | 12.5 | 12.5
3 | CNC(=O)c1cc(Nc2cc(NC)c3ncc(C(=O)NC4CC4)n3n2)nn1C [Example 41, N-cyclopropyl-6-((1-methyl-5-(methylcarbamoyl)-1H-pyrazol-3-yl)amino)-8-(methylamino)imidazo[1,2-b]pyridazine-3-carboxamide] | 0.03 | 12.5 | 12.5
4 | CNc1cc(Nc2cc(C(=O)Nc3ccccc3)n(C)n2)nn2c(C(=O)NC3CC3)cnc12 [Example 42] | 0.36 | 12.5 | 12.5
5 | CNC(=O)c1sccc1Nc1cc(NC)c2ncc(C(=O)NC3CC3)n2n1 [Example 43, N-cyclopropyl-8-(methylamino)-6-((2-(methylcarbamoyl)thiophen-3-yl)amino)imidazo[1,2-b]pyridazine-3-carboxamide] | 0.49 | 16.1 | 12.5
6 | CNc1cc(Nc2ccsc2C(=O)NC(C)C)nn2c(C(=O)NC3CC3)cnc12 [Example 44] | 0.01 | 0.14 | 0.07
7 | CNc1cc(Nc2ccsc2C(=O)Nc2ccc(F)cc2)nn2c(C(=O)NC3CC3)cnc12 [Example 45] | 0.02 | 0.22 | 0.13
8 | CNc1cc(Nc2ccsc2C(=O)Nc2cccnc2)nn2c(C(=O)NC3CC3)cnc12 [Example 46] | 0.008 | 0.1 | 0.12
9 | [2H]C([2H])([2H])NC(=O)c1sccc1Nc1cc(NC)c2ncc(C(=O)NC3CC3)n2n1 [Example 47] | 0.00513 | 0.06 | 0.05
10 | [2H]C([2H])([2H])NC(=O)c1sccc1Nc1cc(NC)c2ncc(C(=O)NCCOC)n2n1 [Example 48] | 0.02 | 0.15 | 0.08
11 | [2H]C([2H])([2H])NC(=O)c1sccc1Nc1cc(NC)c2ncc(C(=O)NCCO)n2n1 [Example 49] | 0.04 | 0.27 | 0.26
12 | [2H]C([2H])([2H])NC(=O)c1sccc1Nc1cc(NC)c2ncc(C(=O)NC3CCC3)n2n1 [Example 50] | 0.03 | 0.45 | 1
13 | CNC(=O)c1occc1Nc1cc(NC)c2ncc(C(=O)NC3CC3)n2n1 [Example 51, N-cyclopropyl-8-(methylamino)-6-((2-(methylcarbamoyl)furan-3-yl)amino)imidazo[1,2-b]pyridazine-3-carboxamide] | 0.00379 | 0.05 | 0.04
14 | CCNC(=O)c1occc1Nc1cc(NC)c2ncc(C(=O)NC3CC3)n2n1 [Example 52] | 0.00673 | 0.1 | 0.06
15 | [2H]C([2H])([2H])NC(=O)c1occc1Nc1cc(NC)c2ncc(C(=O)NC3CC3)n2n1 [Example 53] | 0.00282 | 0.06 | 0.07
16 | CNc1cc(Nc2ccoc2C(=O)NC(C)C)nn2c(C(=O)NC3CC3)cnc12 [Example 54] | 0.00606 | 0.17 | 0.05
17 | CNc1cc(Nc2ccoc2C(=O)Nc2ccc(OC)nc2)nn2c(C(=O)NC3CC3)cnc12 [Example 55] | 0.00287 | 0.06 | 0.03
18 | CNc1cc(Nc2ccoc2C(=O)Nc2ccc(F)cc2)nn2c(C(=O)NC3CC3)cnc12 [Example 56] | 0.00208 | 0.03 | 0.02
19 | CNc1cc(Nc2ccoc2C(=O)Nc2cccnc2)nn2c(C(=O)NC3CC3)cnc12 [Example 58] | 0.00361 | 0.15 | 0.11
